# Reference: patent US20040121947A1, “Compounds which inhibit beta-secretase activity and methods of use thereof” (Oklahoma Medical Research Foundation, priority 2000, published 2004)
# Values joined by “and” are separate entries in the source; they are usually repeats but may differ in a detail not shown here. Equal entries are not always repeated. Where two headings read alike, the source gives them in different places. *1 amine or outer side, *2 acyl side, *3 side chain or, on linkers, in order; H or OH if unused. Where a SMILES comes first, the peptide text is derived from it. [ ]: non-standard residue; d: D form. The star is where a group is joined. LeuΨ(S-CHOHCH2)Ala = CC(C)C[C@H](N[*:1])[C@@H](O)C[C@@H](C)C(=O)[*:2]; 5FAM = O=C1OC2(c3ccc(O)cc3Oc3cc(O)ccc32)c2ccc(C(=O)*)cc21; Ahx = NCCCCCC(=O)O
# What was measured:
# plasma Aβ40 [1] = experiment: Inhibition of Aβ production in transgenic mice (plasma Aβ40 ELISA); format: in vivo, tg2576 mice; details: for Effect on plasma Aβ40: i.p. injection, 2 hours following injection
# Experimental: Six-month-old tg2576 mice (n=21) were injected intraperitoneally (i.p.) 200 μg of conjugate CPI-3 or with control DMSO, in 200 μl of PBS. Plasma were collected from anesthetized animals by orbital bleed or sephaneous vein into heparinized capillary tubes and clarified by centrifugation. Plasma Aβ 1-40 levels were determined by capture ELISA (BioSource International, Camarillo, Calif.). The peptide analogue of CPI-3, with an amide group instead of the hydroxyethylene isostere was synthesized by SynPep (Camarillo, Calif.).
# Since the conjugate inhibitors can cross the blood brain barrier in vivo, enter cells both in vitro and in vivo, and inhibit Aβ production in vitro, inhibition of Aβ production in vivo was determined. Tg2576 mice, expressing the Swedish mutation of the human amyloid precursor protein (including SEQ ID NO: 11) (Hsiao, K., et al., Science 274:99-102 (1996), the teachings of which are incorporated hereby in their entirety) were injected with CPI-3, which is identical in amino acid sequence to CPI-2 and lacks the amino-terminal fluorescein (FAM) derivative. Blood was collected from tg2576 animals at time intervals following injection of 400 μg of CPI-3.
# At ages up to 9 months, plasma Aβ in the tg2576 mice serves as a reliable marker for brain Aβ production as a result of memapsin 2 activity (Kawarabayashi, T., et al., J Neurosci. 21:372-381 (2001)). Nine tg2576 mice were injected intraperitoneally with various doses of inhibitor CPI-3.
# memapsin 2 = molecular target: T1, memapsin 2 (Homo sapiens, UniProt P56817); experiment: Inhibition of memapsin 2 proteolytic activity, fluorogenic substrate FS-2; format: biochemical; details: for Selectivity: Ki for memapsin 2 lower than Ki for memapsin 1: memapsin 2 relative to memapsin 1
# T1 construct: pET-11 vector-derived residues 1-15 of promemapsin 2-T1 (N, cleaved yes); made in house; host or cells: E. coli
# T1 sequence (P56817 41-454 limits assumed): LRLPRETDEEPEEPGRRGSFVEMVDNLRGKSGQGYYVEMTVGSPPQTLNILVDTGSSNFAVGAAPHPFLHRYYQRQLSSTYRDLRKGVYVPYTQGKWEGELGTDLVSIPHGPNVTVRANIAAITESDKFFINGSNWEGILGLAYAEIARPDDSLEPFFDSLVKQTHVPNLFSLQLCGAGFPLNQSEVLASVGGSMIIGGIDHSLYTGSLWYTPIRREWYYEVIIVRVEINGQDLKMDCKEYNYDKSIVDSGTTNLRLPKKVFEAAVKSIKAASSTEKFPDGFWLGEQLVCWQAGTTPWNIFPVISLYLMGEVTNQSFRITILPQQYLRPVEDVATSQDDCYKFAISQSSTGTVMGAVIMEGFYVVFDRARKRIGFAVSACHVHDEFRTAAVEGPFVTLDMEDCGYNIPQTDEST
# Method in brief: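 Inhibitors tested at about 10 nM to 10 μM in pH 4.0 0.1 M sodium acetate containing 10% (v/v) DMSO, after 20 min preincubation at 37 °C with 80 nM self-activated memapsin 2. Substrate-independent Ki derived from apparent Ki via Km and substrate level.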
# plasma Aβ40 [2] = experiment: Inhibition of Aβ production in transgenic mouse model of Alzheimer's disease (plasma Aβ40 ELISA); format: in vivo, APP/F mice
# Experimental: Compounds MMI-138, MMI-165, and MMI-185 were synthesized as described above. Compounds were dissolved in 1 ml of dimethyl sulfoxide (DMSO) to a final concentration of about 1 mg/ml for MMI-165 and MMI-185, and about 10 mg/ml for MMI-138. […] Inhibitors were diluted into PBS or H2O immediately prior to injection, as described below. Inhibition constants were determined by methods described by Ermolieff, et al. (Biochem. 39:12450-12456 (2000), the teachings of which are incorporated hereby in their entirety).
# The tg2576 strain of mice was obtained from Taconic (Germantown, N.Y.). The APP/F strain of mice were obtained by mating the tg2576 mice with the FVB/N strain. To determine presence of the Swedish APP gene in APP/F mice, the DNA from mice was isolated according to the Qiagen Dneasy™ Tissue Kit. PCR (Qiagen kit and protocol) was used to amplify the fragment of DNA corresponding to the human Swedish APP gene. The following primers were used: […]
# At the age of three months, animals of the Alzheimer's disease mouse model APP/F were injected intraperitoneally (i.p.) with about 163 nanomoles of either compounds MMI-138 (molecular weight 674 g/mole; 110 μg per animal, n=2), MMI-165 (molecular weight 626 g/mole; 102 μg per animal, n=2), or MMI-185 (molecular weight 686; 112 μg per animal, n=2).
# Heparinized capillary tubes collected blood samples from anesthetized animals from either the retro-orbital sinus or from the saphenous vein at specified intervals following injection. The blood samples were transferred to sterile 1.5 mL microcentrifuge tubes, centrifuged at 5,100 RPM for 10 minutes to recover the plasma (supernatant), and stored at −70° C. until analysis for the Aβ40 by Enzyme Linked-Immuno-Sorbent Assay (ELISA).
# A sandwich ELISA (BioSource International, Camarillo, Calif.) was used to determine the levels of Aβ40 in plasma samples. The ELISA utilizes a primary antibody specific for human Aβ for the immobilization of the amino-terminus and a detection antibody specific for the carboxy-terminal amino acids of Aβ40. A conjugated secondary antibody was used to detect the ternary complex, using a stabilized chromogen substrate, quantifiable following addition of 1 M HCl, with the optical densities measured at 450 nm. The procedures were followed according to the BioSource protocol. Optical densities were converted to pg/ml quantities of Aβ40 using a linear regression of the optical densities of standards obtained from the commercial kit, to their known concentrations.
# memapsin 1 = molecular target: T2, memapsin 1 (Homo sapiens, UniProt Q9Y5Z0); experiment: Inhibition of memapsin 1 proteolytic activity, fluorogenic substrate FS-2; format: biochemical
# T2 construct: pET-11 vector-derived residues 1-14 of promemapsin 1-T1 (N, cleaved yes); made in house; host or cells: E. coli
# T2 sequence (Q9Y5Z0 63-466 limits assumed): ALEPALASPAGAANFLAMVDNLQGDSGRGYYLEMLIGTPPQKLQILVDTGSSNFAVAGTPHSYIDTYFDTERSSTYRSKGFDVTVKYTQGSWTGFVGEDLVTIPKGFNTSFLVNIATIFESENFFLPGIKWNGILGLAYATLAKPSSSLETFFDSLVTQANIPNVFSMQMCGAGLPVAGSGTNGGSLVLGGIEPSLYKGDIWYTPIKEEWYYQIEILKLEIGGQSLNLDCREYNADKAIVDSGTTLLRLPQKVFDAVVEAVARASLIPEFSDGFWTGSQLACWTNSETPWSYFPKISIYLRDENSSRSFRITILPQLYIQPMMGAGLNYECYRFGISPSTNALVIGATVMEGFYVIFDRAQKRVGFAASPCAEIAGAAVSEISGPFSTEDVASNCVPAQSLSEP
# Experimental: Vi/Vo depicts the ratio of initial cleavage velocities of the substrate FS-2 (Ermolieff, et al., Biochemistry […]:12450-12456 (2000)) by memapsin 1 or memapsin 2 in the absence (Vo) or presence (Vi) of a compound of the invention. […] The Vi/Vo values depicted in Table 1 were determined at conditions under which the enzyme and inhibitor concentrations were equal (e.g., about 80 nM, 100 nM).
# The relationship of Ki (independent of substrate concentration) to Kiapp is a function of substrate concentration in the assay and the Km for cleavage of the substrate by either memapsin 1 or memapsin 2 by the relationship:
# An aliquot of the inhibitor of known concentration in DMSO was diluted into 1.8 ml 0.1 M NaOAc, pH 4.0. DMSO and added to a final concentration of 10% (v/v), and memapsin 2 (final concentration of 80 nM), followed by a 20 minute equilibration at 37° C. Compounds were evaluated for the ability to inhibit memapsin 1 and memapsin 2 at concentrations between about 10 nM and about 10 μm of inhibitor.
# The relationship of Ki (independent of substrate concentration) to Kiapp is a function of substrate concentration in the assay and the Km for cleavage of the substrate by either memapsin 1 or memapsin 2 by the relationship: […]
# HEK293 cells = experiment: Penetration of fluorescently labelled inhibitors into cultured cells (flow cytometry); format: cell-based, human; details: incubation 10 to 30 minutes
# Experimental: Fluorescently labelled inhibitors or fluorescein (Fs) as a control were incubated with suspended cells for time intervals ranging from 10 to 30 minutes. Cells were fixed with paraformaldehyde and permeabilized in 0.2% Tween-20 in PBS for 6 minutes and incubated with anti-fluorescein-Alexa™ 488 antibody (Molecular Probes, Eugene, Oreg.) in order to enhance detection of intracellular inhibitor present from penetration. Flow cytometry (FACSCalibur™) and confocal fluorescent microscopy (Leica TCS NT™) were performed at the Flow and Image Cytometry Lab, OUHSC.
# [3] = Transport of conjugated inhibitors to mouse blood, spleen and brain after i.p. injection
# Experimental: Whole blood cells (with EDTA as anti-coagulant in the syringe or in the capillary tube) were isolated from anesthetized animals from the orbital artery or by heart puncture and diluted 1:10 in PBS. Prior to the harvest of other tissue samples, animals were anesthetized and perfused with 150 ml of neutral-buffered 10% formalin. Spleens were harvested intact. Brains were harvested and cerebral hemispheres separated, one for sectioning by cryostat, the other for single cell isolation for flow cytometry.
# Sections of the brain hemispheres were obtained by soaking in OCT/PBS at 4° C. for overnight, recovered and frozen in Histo Prep Media.
# To collect single cell suspensions, spleens and brain hemispheres were homogenized through a 30 μm screen and directly analyzed by flow cytometric analysis.
# [4] = four injections at 2 hour intervals
# [5] = enzyme concentration equals the compound concentration
smiles,measurement,setting,value
CC(C)C[C@H](NC(=O)[C@@H](N)CCC(=O)O)C(=O)N[C@@H](CC(=O)O)C(=O)N[C@@H](CC(C)C)[C@@H](O)C[C@@H](C)C(=O)N[C@H](C(=O)N[C@@H](CCC(=O)O)C(=O)N[C@@H](Cc1ccccc1)C(=O)NCC(=O)NCC(=O)N[C@H](CCCNC(=N)N)C(=O)N[C@H](CCCNC(=N)N)C(=O)N[C@H](CCCNC(=N)N)C(=O)N[C@H](CCCNC(=N)N)C(=O)N[C@H](CCCNC(=N)N)C(=O)N[C@H](CCCNC(=N)N)C(=O)N[C@H](CCCNC(=N)N)C(=O)N[C@H](CCCNC(=N)N)C(=O)N[C@H](CCCNC(=N)N)C(=O)O)C(C)C [CPI-3] (H-ELD[LeuΨ(S-CHOHCH2)Ala]VEFGG[dR][dR][dR][dR][dR][dR][dR][dR][dR]-OH),Plasma Aβ40 level relative to initial value,plasma Aβ40 [1]; 2 hours following i.p. injection,about one third
same,"Aβ level, average low, % of the average initial value",plasma Aβ40 [1]; [4],29%
same,Inhibition of plasma Aβ,plasma Aβ40 [1]; [4],about 80%
same,Effect on plasma Aβ40,plasma Aβ40 [1],significant dose-dependent reduction
same,Half-life of inhibition of plasma Aβ40,plasma Aβ40 [1]; single i.p. injection,3 h
same,Time of return of plasma Aβ40 level to the initial value,plasma Aβ40 [1]; single i.p. injection,≤ 8 h
CSCC[C@H](NC(=O)OCn1nc(C)cc1C)C(=O)N[C@@H](CC(C)C)[C@@H](O)C[C@@H](C)C(=O)N[C@H](C(=O)NCc1ccccc1)C(C)C [MMI-138],Ki,"memapsin 2; Table 9, read-out: Ki apparent Mep2",14.2 nM
same,% Inhibition Mep2,memapsin 2; [5],72%
same,Ki,"memapsin 2; memapsin 2, apparent Ki in presence of substrate FS-2, read-out: Ki app",14.2 nM
same,Ki,"memapsin 2; memapsin 2, read-out: Ki",14.2 nM and 8.8 nM
same,Selectivity: Ki for memapsin 2 lower than Ki for memapsin 1,memapsin 2,about 60 fold
same,Selectivity: Ki for memapsin 2 lower than Ki for memapsin 1,memapsin 2; listed as 138,about 60 fold
same,% Inh (M1/M2),"memapsin 2; ratio of % inhibition memapsin 1 / memapsin 2, 1 or less = greater inhibition of memapsin 2",0.10
same,Sustainment of inhibition of plasma Aβ40,plasma Aβ40 [2]; over a 24-h period,remained nearly constant
same,Blood brain barrier penetration (from reduction of plasma Aβ),plasma Aβ40 [2]; transgenic mice,penetrated the blood brain barrier
same,Decrease in plasma Aβ40,plasma Aβ40 [2]; within 30 minutes following i.p. injection of about 163 nanomoles,57%
same,% Inhibition Mep1,memapsin 1; [5],7%
same,Ki,memapsin 1; read-out: Ki for memapsin 1,811 nM
"CC(C)C[C@H](NC(=O)[C@@H](N)CCC(=O)O)C(=O)N[C@@H](CC(=O)O)C(=O)N[C@@H](CC(C)C)[C@@H](O)C[C@@H](C)C(=O)N[C@H](C(=O)N[C@@H](CCC(=O)O)C(=O)N[C@@H](Cc1ccccc1)C(=O)O)C(C)C [OM00-3, ELDL*AVEF] (H-ELD[LeuΨ(S-CHOHCH2)Ala]VEF-OH)",Decrease in plasma Aβ40,plasma Aβ40 [2]; 2 hours following injection of 163 nmoles,16%
same,Inhibition of Aβ40 production in vivo,plasma Aβ40 [2]; plasma Aβ40,failed to inhibit Aβ40 production
same,Effect on plasma Aβ40,plasma Aβ40 [1],did not reduce plasma Aβ40 levels
CC(C)C[C@H](NC(=O)[C@H](CC(N)=O)NC(=O)[C@@H](NC(=O)[C@H](CCC(=O)O)NC(=O)CCCCCNC(=O)c1ccc2c(c1)C(=O)OC21c2ccc(O)cc2Oc2cc(O)ccc21)C(C)C)[C@@H](O)C[C@@H](C)C(=O)N[C@@H](C)C(=O)N[C@@H](CCC(=O)O)C(=O)N[C@@H](Cc1ccccc1)C(=O)NCC(=O)N[C@@H](Cc1ccc(O)cc1)C(=O)NCC(=O)N[C@@H](CCCNC(=N)N)C(=O)N[C@@H](CCCCN)C(=O)N[C@@H](CCCCN)C(=O)N[C@@H](CCCNC(=N)N)C(=O)N[C@@H](CCCNC(=N)N)C(=O)N[C@@H](CCC(N)=O)C(=O)N[C@@H](CCCNC(=N)N)C(=O)N[C@@H](CCCNC(=N)N)C(=O)N[C@@H](CCCNC(=N)N)C(=O)O [CPI-1] ({5FAM-Ahx}-EVN[LeuΨ(S-CHOHCH2)Ala]AEFGYGRKKRRQRRR-OH),Penetration of cultured cells (intracellular fluorescence),HEK293 cells,readily penetrated cultured cells within minutes
same,Ki,"memapsin 2; memapsin 2, carrier peptide-inhibitor conjugates, read-out: Ki apparent",39 nM
same,Uptake into brain tissue,"[3]; 8 hours after i.p. injection, flow cytometry or confocal microscopy",penetration of the fluorescent conjugate into all brain cells
same,Splenocytes with fluorescence peak shift,[3]; splenectomy 2 hours after i.p. injection,~100%
same,Blood cells with strong fluorescence signal,"[3]; whole blood 20 minutes after i.p. injection, 0.3 nmol",approximately 100%
